One block for each compound: values may come before it.
Assay: solvent given as SMILES
[1] = in CCCCCCCCC=CCCCCCCCC(=O)OCC(COC(=O)CCCCCCCC=CCCCCCCCC)OC(=O)CCCCCCCC=CCCCCCCCC

solvation free energy, 298 K (in O): -4.59 kcal/mol
Compound: COC(CCl)(OC)OC

solvation free energy, 298 K (in CCO): -3.98 kcal/mol | solvation free energy, 298 K (in O): -0.46 kcal/mol
Compound: CC(C)I

solvation free energy, 298 K (in C=CCCCCCCC=C): -9.41 kcal/mol | solvation free energy, 298 K (in O): -13.7 kcal/mol
Compound: O=C(O)C(O)c1ccccc1 (configuration not stated)

solvation free energy, 298 K (in O): -9.26 kcal/mol
Compound: CCCCCC(=O)c1c(C)[nH]n(-c2ccccc2)c1=O

solvation free energy, 298 K (in O): -5.01 kcal/mol
Compound: CCCCCCCNCc1ccc(C)cc1

solvation free energy, 298 K (in C=CCCCCCCC=C): -2.71 kcal/mol | solvation free energy, 298 K (in C=CCCCCCCCCCCCCCC): -2.41 kcal/mol | solvation free energy, 298 K (in [2H]O[2H]): -6.55 kcal/mol
Compound: CC(=O)O

solvation free energy, 298 K (in C=CCCCCCCCCCCCCCC): -3.89 kcal/mol
Compound: CCC(C)(C)CC

Compound: CN1C2CCC1CC(OC(=O)C(CO)c1ccccc1)C2 (configuration not stated)
solvation free energy, 298 K (in CCO): -18 kcal/mol

Compound: COCOC
solvation free energy, 298 K (in ClC(Cl)(Cl)Cl): -3.66 kcal/mol | solvation free energy, 298 K (in ClC(Cl)Cl): -3.99 kcal/mol | solvation free energy, 298 K (in O): -2.95 kcal/mol | solvation free energy, 298 K (in S=C=S): -3.28 kcal/mol

solvation free energy, 298 K (in O): -7.58 kcal/mol
Compound: CN1CCN(C)CC1

Compound: C=CCCl
solvation free energy, 298 K (in O): -0.57 kcal/mol

Compound: CS
solvation free energy, 298 K (in O): -1.18 kcal/mol

Compound: O=C=S
solvation free energy, 298 K (in CC1COC(=O)O1): -1.15 kcal/mol | solvation free energy, 298 K (in CN1CCCC1=O): -1.41 kcal/mol | solvation free energy, 298 K (in COCCOCCOCCOCCOC): -1.41 kcal/mol | solvation free energy, 298 K (in O): 0.41 kcal/mol

solvation free energy, 298 K (in O): -8.41 kcal/mol
Compound: Cn1ccnc1

solvation free energy, 298 K [1]: -9.71 kcal/mol | solvation free energy, 298 K (in O): -2.54 kcal/mol
Compound: Brc1cc(Br)c(Br)cc1Br

solvation free energy, 298 K (in O): -0.03 kcal/mol
Compound: CC1=CCC(C(C)C)=CC1

Compound: C1COCCOCCOCCOCCO1
solvation free energy, 298 K (in Cc1cccc(C)c1): -10.9 kcal/mol | solvation free energy, 298 K (in O): -12.8 kcal/mol

Compound: c1ccc(N=Nc2ccccc2)cc1
solvation free energy, 298 K [1]: -11.2 kcal/mol | solvation free energy, 298 K (in O): -4.82 kcal/mol

Compound: Ic1ccccc1
solvation free energy, 298 K (in C1CCOC1): -7.38 kcal/mol | solvation free energy, 298 K (in C1COCCO1): -7.22 kcal/mol | solvation free energy, 298 K (in CCCCCCC): -6.27 kcal/mol | solvation free energy, 298 K (in CCCCCCCCCCCCCCCC): -6.11 kcal/mol | solvation free energy, 298 K (in CN(C)C=O): -7.09 kcal/mol | solvation free energy, 298 K (in ClC(Cl)(Cl)Cl): -6.81 kcal/mol | solvation free energy, 298 K (in N#Cc1ccccc1): -6.98 kcal/mol | solvation free energy, 298 K (in O): -1.75 kcal/mol | solvation free energy, 298 K (in OCCO): -5.28 kcal/mol

Compound: COc1ccc(C=O)cc1O
solvation free energy, 298 K (in O): -9.04 kcal/mol

solvation free energy, 298 K (in O): -4.29 kcal/mol
Compound: CC(=O)C(C)O (configuration not stated)

Compound: CC(C)NC(C)C
solvation free energy, 298 K (in O): -3.22 kcal/mol

solvation free energy, 298 K (in COC(C)(C)C): -4.8 kcal/mol | solvation free energy, 298 K (in O): -3.88 kcal/mol
Compound: CN1CCCCC1

solvation free energy, 298 K (in O): -0.95 kcal/mol
Compound: CCc1ccc(C)cc1

Compound: BrC1CCCCC1
solvation free energy, 298 K (in O): -0.57 kcal/mol

Compound: O=C1c2ccccc2-c2ccccc21
solvation free energy, 298 K (in CC(C)(C)O): -10.4 kcal/mol | solvation free energy, 298 K (in CC(C)CC(C)(C)C): -9.57 kcal/mol | solvation free energy, 298 K (in CC(C)CCO): -10.5 kcal/mol | solvation free energy, 298 K (in CC(C)CO): -10.3 kcal/mol | solvation free energy, 298 K (in CC(C)O): -10.4 kcal/mol | solvation free energy, 298 K (in CC(C)OC(C)C): -10.5 kcal/mol | solvation free energy, 298 K (in CCC(C)O): -10.5 kcal/mol | solvation free energy, 298 K (in CCCCC(CC)CO): -10.5 kcal/mol | solvation free energy, 298 K (in CCCCCC): -9.78 kcal/mol | solvation free energy, 298 K (in CCCCCCC): -9.83 kcal/mol | solvation free energy, 298 K (in CCCCCCCC): -9.86 kcal/mol | solvation free energy, 298 K [1]: -10.5 kcal/mol | solvation free energy, 298 K (in CCCCCCCCCC): -9.9 kcal/mol | solvation free energy, 298 K (in CCCCCCCCCCO): -10.6 kcal/mol | solvation free energy, 298 K (in CCCCCCCCO): -10.7 kcal/mol | solvation free energy, 298 K (in CCCCCCCO): -10.7 kcal/mol | solvation free energy, 298 K (in CCCCCCO): -10.6 kcal/mol | solvation free energy, 298 K (in CCCCCO): -10.6 kcal/mol | solvation free energy, 298 K (in CCCCO): -10.6 kcal/mol | solvation free energy, 298 K (in CCCO): -10.6 kcal/mol | solvation free energy, 298 K (in CCO): -10.6 kcal/mol | solvation free energy, 298 K (in CO): -10.6 kcal/mol | solvation free energy, 298 K (in COC(C)(C)C): -11 kcal/mol | solvation free energy, 298 K (in ClC(Cl)(Cl)Cl): -11.5 kcal/mol | solvation free energy, 298 K (in ClCCl): -12 kcal/mol | solvation free energy, 298 K (in Fc1ccccc1): -11.7 kcal/mol | solvation free energy, 298 K (in O): -5.78 kcal/mol

solvation free energy, 298 K (in CCCCCC): -5.65 kcal/mol | solvation free energy, 298 K (in CCCCCCC): -5.63 kcal/mol | solvation free energy, 298 K (in CCCCCCCC): -5.55 kcal/mol | solvation free energy, 298 K (in CCCCCCCCCC): -5.48 kcal/mol | solvation free energy, 298 K (in CO): -5.84 kcal/mol | solvation free energy, 298 K (in O): -2.5 kcal/mol
Compound: CCCCCC(=O)OC

solvation free energy, 298 K (in O): 0.05 kcal/mol
Compound: C=C1CC=C(C(C)C)CC1

Compound: CCNc1nc(Cl)nc(NC(C)(C)C)n1
solvation free energy, 298 K (in O): -8.66 kcal/mol

Source: the CombiSolv-Exp solvation set (Vermeire and Green 2021)
